Where “and” joins values, the source holds several entries; their conditions need not be identical. Equal entries are not always repeated. Toxic doses and inconclusive results are not listed. How the source made its calls: active means survival T/C of 150% or more; inactive means T/C below 125% in these data.
Test system: P388 leukemia ip, CD2F1 mice, survival T/C
Test: NCI In Vivo Anticancer Drug Screen. Data for tumor model P388 Leukemia (intraperitoneal) in CD2F1 (CDF1) mice
Details: endpoint: median survival time, higher = longer survival
In short: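 Mice carrying the transplanted tumor received test compound or vehicle. Survival was recorded in each group, and the value is the treated-group measurement divided by that of the vehicle-treated control group.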

[1] = dose: 50.0 mg/kg/injection, schedule: Q01DX009 (ip), vehicle: Klucel (hydroxypropylcellulose) (HPC)
[2] = dose: 100.0 mg/kg/injection, schedule: Q01DX009 (ip), vehicle: saline with Tween-80
[3] = dose: 200.0 mg/kg/injection, schedule: Q01DX009 (ip), vehicle: saline with Tween-80

Measured: T/C

Brc1cc(Br)c2ccccc2c1OCC1CO1 (stereo not drawn)
inactive: dose: 12.5 mg/kg/injection, schedule: Q01DX009 (ip), vehicle: Klucel (hydroxypropylcellulose) (HPC) 106 % of control and 95 % of control | dose: 25.0 mg/kg/injection, schedule: Q01DX009 (ip), vehicle: Klucel (hydroxypropylcellulose) (HPC) 106 % of control | [1] 88 % of control and 89 % of control and 95 % of control | dose: 200.0 mg/kg/injection, schedule: Q01DX009 (ip), vehicle: Klucel (hydroxypropylcellulose) (HPC) 91 % of control

CC(C)(C)OC(=O)NC(Cc1ccc(OCc2ccccc2)cc1)C(=O)O (stereo not drawn)
inactive: dose: 50.0 mg/kg/injection, schedule: Q01DX005 (ip), vehicle: saline with Tween-80 104 % of control | dose: 100.0 mg/kg/injection, schedule: Q01DX005 (ip), vehicle: saline with Tween-80 106 % of control | dose: 200.0 mg/kg/injection, schedule: Q01DX005 (ip), vehicle: saline with Tween-80 97 % of control

CCCS(=O)[O-].CCCS(=O)[O-].[Zn+2]
inactive: dose: 0.05 mg/kg/injection, schedule: Q01DX009 (ip), vehicle: saline 103 % of control | dose: 0.1 mg/kg/injection, schedule: Q01DX009 (ip), vehicle: saline 107 % of control | dose: 0.2 mg/kg/injection, schedule: Q01DX009 (ip), vehicle: saline 108 % of control | dose: 0.4 mg/kg/injection, schedule: Q01DX009 (ip), vehicle: saline 99 % of control | dose: 0.8 mg/kg/injection, schedule: Q01DX009 (ip), vehicle: saline 107 % of control | dose: 1.6 mg/kg/injection, schedule: Q01DX009 (ip), vehicle: saline 108 % of control | dose: 3.2 mg/kg/injection, schedule: Q01DX009 (ip), vehicle: saline 101 % of control | dose: 6.4 mg/kg/injection, schedule: Q01DX009 (ip), vehicle: saline 100 % of control | dose: 12.8 mg/kg/injection, schedule: Q01DX009 (ip), vehicle: saline 100 % of control

C[n+]1c(-c2cccc3ccccc23)c2cc([N+](=O)[O-])ccc2c2ccccc21
inactive: dose: 4.0 mg/kg/injection, schedule: Q01DX009 (ip), vehicle: Klucel (hydroxypropylcellulose) (HPC) 114 % of control | dose: 8.0 mg/kg/injection, schedule: Q01DX009 (ip), vehicle: Klucel (hydroxypropylcellulose) (HPC) 115 % of control | dose: 8.0 mg/kg/injection, schedule: Q04DX003 (ip), vehicle: Klucel (hydroxypropylcellulose) (HPC) 98 % of control | dose: 16.0 mg/kg/injection, schedule: Q01DX009 (ip), vehicle: Klucel (hydroxypropylcellulose) (HPC) 119 % of control | dose: 16.0 mg/kg/injection, schedule: Q04DX003 (ip), vehicle: Klucel (hydroxypropylcellulose) (HPC) 108 % of control | dose: 32.0 mg/kg/injection, schedule: Q01DX009 (ip), vehicle: Klucel (hydroxypropylcellulose) (HPC) 114 % of control | dose: 32.0 mg/kg/injection, schedule: Q04DX003 (ip), vehicle: Klucel (hydroxypropylcellulose) (HPC) 114 % of control | dose: 64.0 mg/kg/injection, schedule: Q04DX003 (ip), vehicle: Klucel (hydroxypropylcellulose) (HPC) 106 % of control

CCn1cc(C(=O)O)c(=O)c2ccc(C)nc21 (tested in a mixture with another compound)
inactive: dose: 100.0 mg/kg/injection, schedule: Q04DX002 (ip), vehicle: saline with Tween-80 99 % of control | dose: 200.0 mg/kg/injection, schedule: Q04DX002 (ip), vehicle: saline with Tween-80 91 % of control

CC(=O)OCN(C)N=Nc1ccc(Br)cc1
inactive: dose: 36.0 mg/kg/injection, schedule: Q01DX005 (ip), vehicle: Klucel (hydroxypropylcellulose) (HPC) 94 % of control | dose: 72.0 mg/kg/injection, schedule: Q01DX005 (ip), vehicle: Klucel (hydroxypropylcellulose) (HPC) 92 % of control

CSCCCNCc1ccccc1
inactive: dose: 50.0 mg/kg/injection, schedule: Q01DX005 (ip), vehicle: saline 100 % of control | dose: 100.0 mg/kg/injection, schedule: Q01DX005 (ip), vehicle: saline 106 % of control

O=C(c1ccc(F)cc1)c1no[n+]([O-])c1C(=O)c1ccc(F)cc1
inactive: dose: 37.5 mg/kg/injection, schedule: Q01DX009 (ip), vehicle: saline with Tween-80 122 % of control | dose: 75.0 mg/kg/injection, schedule: Q01DX009 (ip), vehicle: saline with Tween-80 118 % of control

Cc1c([N+](=O)[O-])oc2c1C(=O)c1ccccc1C2=O
inactive: dose: 15.0 mg/kg/injection, schedule: Q01DX005 (ip), vehicle: Klucel (hydroxypropylcellulose) (HPC) 95 % of control | dose: 30.0 mg/kg/injection, schedule: Q01DX005 (ip), vehicle: Klucel (hydroxypropylcellulose) (HPC) 95 % of control | dose: 60.0 mg/kg/injection, schedule: Q01DX005 (ip), vehicle: Klucel (hydroxypropylcellulose) (HPC) 95 % of control and 96 % of control | dose: 120.0 mg/kg/injection, schedule: Q01DX005 (ip), vehicle: Klucel (hydroxypropylcellulose) (HPC) 102 % of control

COc1cccc(CC(=O)NCCc2ccc(OC)c(OC)c2)c1
inactive: [2] 100 % of control | [3] 100 % of control | dose: 400.0 mg/kg/injection, schedule: Q01DX009 (ip), vehicle: saline with Tween-80 104 % of control

CC1(OC(=O)c2ccc(Cl)cc2)CC(C)(C)[N+]([O-])=N1 (stereo not drawn)
inactive: dose: 12.5 mg/kg/injection, schedule: Q01DX009 (ip), vehicle: other 103 % of control | dose: 25.0 mg/kg/injection, schedule: Q01DX009 (ip), vehicle: other 99 % of control | dose: 50.0 mg/kg/injection, schedule: Q01DX009 (ip), vehicle: other 99 % of control | dose: 100.0 mg/kg/injection, schedule: Q01DX009 (ip), vehicle: other 96 % of control | dose: 200.0 mg/kg/injection, schedule: Q01DX009 (ip), vehicle: other 99 % of control

C/C=C1\C[N+]2(C)CCC34c5ccccc5NC32C(O)CC1C4(CO)C(=O)OC (stereo not drawn)
inactive: dose: 4.0 mg/kg/injection, schedule: Q01DX009 (ip), vehicle: saline with Tween-80 110 % of control | dose: 4.0 mg/kg/injection, schedule: Q01DX009 (ip), vehicle: saline 113 % of control | dose: 8.0 mg/kg/injection, schedule: Q01DX009 (ip), vehicle: saline with Tween-80 110 % of control | dose: 8.0 mg/kg/injection, schedule: Q01DX009 (ip), vehicle: saline 97 % of control | dose: 16.0 mg/kg/injection, schedule: Q01DX009 (ip), vehicle: saline with Tween-80 103 % of control | dose: 16.0 mg/kg/injection, schedule: Q01DX009 (ip), vehicle: saline 105 % of control | dose: 32.0 mg/kg/injection, schedule: Q01DX009 (ip), vehicle: saline with Tween-80 110 % of control | dose: 32.0 mg/kg/injection, schedule: Q01DX009 (ip), vehicle: saline 98 % of control

COC(=O)[C@@H]1[C@@H]2O[C@@H]2[C@H]2O[C@H]2[C@H]1C(=O)O
inactive: dose: 6.25 mg/kg/injection, schedule: Q01DX001 (ip), vehicle: Klucel (hydroxypropylcellulose) (HPC) 113 % of control | dose: 12.5 mg/kg/injection, schedule: Q01DX001 (ip), vehicle: Klucel (hydroxypropylcellulose) (HPC) 103 % of control | dose: 25.0 mg/kg/injection, schedule: Q01DX001 (ip), vehicle: Klucel (hydroxypropylcellulose) (HPC) 100 % of control | dose: 50.0 mg/kg/injection, schedule: Q01DX001 (ip), vehicle: Klucel (hydroxypropylcellulose) (HPC) 99 % of control

C(=C1SCCCS1)c1cc2c(cc1OCc1ccccc1)OCO2
inactive: dose: 100.0 mg/kg/injection, schedule: Q01DX001 (ip), vehicle: Klucel (hydroxypropylcellulose) (HPC) 100 % of control | dose: 200.0 mg/kg/injection, schedule: Q01DX001 (ip), vehicle: Klucel (hydroxypropylcellulose) (HPC) 105 % of control | dose: 400.0 mg/kg/injection, schedule: Q01DX001 (ip), vehicle: Klucel (hydroxypropylcellulose) (HPC) 102 % of control

Cc1ccc(/C=N/N=c2/sc3ccccc3n2CC(=O)O)cc1
inactive: dose: 100.0 mg/kg/injection, schedule: Q01DX001 (ip), vehicle: saline with Tween-80 98 % of control | dose: 200.0 mg/kg/injection, schedule: Q01DX001 (ip), vehicle: saline with Tween-80 92 % of control | dose: 400.0 mg/kg/injection, schedule: Q01DX001 (ip), vehicle: saline with Tween-80 89 % of control

Cc1ccc(CN(S(=O)(=O)c2ccc(C)cc2)S(=O)(=O)c2ccc(C)cc2)cc1
inactive: [2] 88 % of control | [3] 113 % of control

COc1ccc2nc3cc(Cl)ccc3c(NN3CCN(CCO)CC3)c2c1
inactive: dose: 0.19 mg/kg/injection, schedule: Q01DX009 (ip), vehicle: DMSO 86 % of control | dose: 0.38 mg/kg/injection, schedule: Q01DX009 (ip), vehicle: DMSO 98 % of control and 89 % of control | dose: 0.75 mg/kg/injection, schedule: Q01DX009 (ip), vehicle: DMSO 98 % of control | dose: 1.5 mg/kg/injection, schedule: Q01DX009 (ip), vehicle: DMSO 107 % of control and 95 % of control | dose: 23.0 micrograms/kg/injection, schedule: Q01DX009 (ip), vehicle: DMSO 87 % of control | dose: 47.0 micrograms/kg/injection, schedule: Q01DX009 (ip), vehicle: DMSO 91 % of control | dose: 94.0 micrograms/kg/injection, schedule: Q01DX009 (ip), vehicle: DMSO 89 % of control

COC(=O)c1ccccc1NC(CCN1CCN(c2ccccc2)CC1)=NC(C)(C)C
inactive: [1] 100 % of control | dose: 100.0 mg/kg/injection, schedule: Q01DX009 (ip), vehicle: Klucel (hydroxypropylcellulose) (HPC) 102 % of control

— PubChem BioAssay AID330 (DTP/NCI, 2004)
